Where two headings read alike, the source gives them in different places.

In one data set the test system is CoV229E. Kind of data set: Anti-Coronavirus 229E cytoprotection (CPE) assay, MRC-5 (Method 3). Format: cell-based, human Coronavirus 229E. As to conditions: Human coronavirus 229E, MRC5, […], read-out: CoV229E - EC50 (μM).
Data set [1] can be described thus: Cytotoxicity, neutral red, Vero E6. Format: cell-based. As to conditions: African green monkey, Vero E6 cells (uninfected toxicity wells), with CPE assay, not converted for FBS. The protocol: Confluent or near-confluent cell culture monolayers of Vero E6 cells are prepared in 96-well disposable microplates the day before testing. Cells are maintained in MEM supplemented with 5% FBS. For antiviral assays the same medium is used but with FBS reduced to 2% and supplemented with 50-μg/ml gentamicin. Compounds are dissolved in DMSO, saline or the diluent requested by the submitter. […] The test compound is prepared at four serial log 10 concentrations, usually 0.1, 1.0, 10, and 100 μg/ml or μM (per sponsor preference). Lower concentrations are used when insufficient compound is supplied. Five microwells are used per dilution: three for infected cultures and two for uninfected toxicity cultures. Controls for the experiment consist of six microwells that are infected and not treated (virus controls) and six that are untreated and uninfected (cell controls) on every plate. A known active drug is tested in parallel as a positive control drug using the same method as is applied for test compounds. The positive control is tested with every test run.
Growth media is removed from the cells and the test compound is applied in 0.1 ml volume to wells at 2× concentration. Virus, normally at ˜60 CCID50 (50% cell culture infectious dose) in 0.1 ml volume is added to the wells designated for virus infection. […] The dye content in each well is quantified using a spectrophotometer at 540 nm wavelength. […]

The subject of the next data set is FBS. Kind of data set: Protein binding by rapid equilibrium dialysis (RED) in FBS. The following applies: 1 μM, n = 3.
Data set [2] relates to Influenza B Yamagata/Brisbane. Kind of data set: Influenza B CPE assay, MDCK. Format: cell-based. The following applies: Influenza B virus, albumin content N/A. The source says:
(§1) The antiviral assays were cell line based and consisted in transfecting each of the viruses tested in a compatible cell line. Upon infection and after drug treatment, viral survival and cell toxicity were reported from the readout of three different assays: cytopathic effect (CPE), viral yield reduction (VYR), or immunofluorescence (IF).

Data set [3] relates to Influenza B Victoria/Florida. Kind of data set: Influenza B CPE assay, MDCK. Format: cell-based. The following applies: Influenza B virus, albumin content N/A.
From the text: as §1

A short description of another data set: in vitro. The following applies: dog, CC50 (μM), MDCK; with Influenza B CPE assays.
Another data set concerns A549-ACE2 cells. As to conditions: with CPE assays (SARS-CoV-2 WA1, Delta, OC43), not converted for FBS.
A short description of data set [4]: Cytotoxicity, neutral red dye-uptake, HG23. Format: cell-based. As to conditions: human, HG23 cells, with Norwalk Virus CPE assay, not converted. The protocol: (§2) Compounds were tested in an assay medium containing 2% fetal bovine serum (FBS). Test compounds were added to cells prior to infection with virus at a multiplicity of infection (MOI) sufficient to induce visible cytopathic effect (CPE). […] Additionally, the EC90 was defined as the concentration required to achieve a 1 log10 reduction in viral titer. Dose-response curves depicting viral CPE (red line) and compound cytotoxicity (purple line) were generated to support these analyses.

In data set [5] the test system is SARS-CoV-2 Omicron (B.1.1.529). Nature of the data set: SARS-CoV-2 IF assay, HeLa-ACE2 (Method 1). Format: cell-based. The following applies: Severe acute respiratory syndrome coronavirus 2, HeLa-ACE2, SARS-CoV-2 Omicron (B.1.1.529), 2% FBS.
In the next data set the test system is Norwalk Virus. Kind of data set: Norwalk virus CPE assay, HG23 (Method 6). Format: cell-based. The following applies: Norovirus Norwalk Virus, 2% FBS, @ 5 μM. The protocol: as §2
In data set [6] the test system is SARS-CoV-2 Delta (B.1.617.2). Nature of the data set: SARS-CoV-2 IF assay, HeLa-ACE2 (Method 1). Format: cell-based. As to conditions: 2% FBS.
The next data set deals with SARS-CoV-2 USA-WA1/2020. Nature of the data set: SARS-CoV-2 CPE assay, Vero 76 (Method 2). Format: cell-based. The following applies: Severe acute respiratory syndrome coronavirus 2, 2% FBS.
For data set [7], the system named is SARS-CoV-2 Beta (B.1.351). Kind of data set: SARS-CoV-2 IF assay, HeLa-ACE2 (Method 1). Format: cell-based. The following applies: 2% FBS.

Turning to `Cc1c(-c2ccc(O)cc2)n(Cc2ccc(OCCN3CCCCC3)cc2)c2ccc(O)cc12` [Pipendoxifene], the EC50 with CoV229E was 0.11 to 0.52 µM; in data set [2] (read-out: Corrected EC50), 6.7 µM; in [2] (read-out: EC50), 6.7 µM; in data set [3] (read-out: Corrected EC50) it was 4.1 µM; in data set [3] (read-out: EC50) it was 4.1 µM; in data set [5] it was 750 nM. The EC50 came out at 677 nM in data set [6] (SARS-CoV-2 Delta (B.1.617.2)); 740 nM in [6] (Severe acute respiratory syndrome coronavirus 2, HeLa-ACE2, SARS-CoV-2 Delta (B.1.617.2)); 2600 nM with SARS-CoV-2 USA-WA1/2020; 668 nM in [7] (SARS-CoV-2 Beta (B.1.351)); 1050 nM in data set [7] (Severe acute respiratory syndrome coronavirus 2, HeLa-ACE2, SARS-CoV-2 Beta (B.1.351)). Also, the CC50 in [1] was 3.2 µM; in “in vitro”, 9.8 µM; in the data set with A549-ACE2 cells, above 15 µM; in data set [4] it was 18 µM. For the same molecule, the entries for the “Mean unbound (Fub, %)” value in the data set with FBS (2% heat inactivated FBS), with FBS (10% heat inactivated FBS) and in the data set on FBS (10% not inactivated FBS) were 25.0%, 5.0% and 4.7%, respectively. Also, the “percent effect printed in column EC50 (μM)” value with Norwalk Virus came out at 31% @.

(Values after patent publication US20260124192A1, “COMPOUNDS, COMPOSITIONS, AND METHODS OF TREATING RNA VIRAL INFECTIONS” (priority 2024, published 2026).)
